Measured values: patent publication US20160222014A1, “COMPOUNDS FOR REGULATING FAK AND/OR SRC PATHWAYS” (ASANA BIOSCIENCES, LLC, priority 2013, published 2016)

Biological target: T1, recombinant human FAK1 (Homo sapiens, UniProt Q05397)
T1 construct: fused on or other part: N-terminal 6xHis tag
Assay: FAK1 HTRF assay
Format: biochemical
Method: Active FAK1 was prepared for use in the Homogeneous Time-Resolved Fluorescence (HTRF) assay. Briefly, N-terminal 6 His tagged recombinant human FAK1, from residue 692-end (GenBank accession no. L13616) was expressed by Bacculovirus in sf9 cells. […] A 1.6 mg/mL (45 μM) stock was used in the HTRF assay at a final concentration of 10 nM.
Gastrin precursor (tyr87) biotinylated peptide which contains the residues surrounding tyrosine 87 (EEAY*GWM) of gastrin precursor was obtained (Cell Signaling Tech, Item no. 1310, Lot 7). The peptide was provided at a stock concentration of 6 μM, and used a final concentration of 0.5 μM in the HTRF assay.
10 mM stock in 100 μL Enzyme assay buffer pH7.4 was prepared freshly and used at a final concentration of 10 μM in the assay.
Powders were dissolved in 100% DMSO to a final stock concentration of 10 mM. The volume needed (in μL) to add for 10 mM=mg powder is 10^5/MW of compound. The final compound concentration in the assay plate started at 10 μM.
Pfizer FAK inhibitor PF-562271 (N-methyl-N-(3-(((2-((2-oxoindolin-5-yl)amino)-5-(trifluoromethyl)pyrimidin-4-yl)amino)methyl)pyridin-2-yl)methanesulfonamide) was prepared as per the reported procedure from US Patent Publication No. 2005/256145A1.
Streptavidin-Allophycocyanin was obtained (Prozyme, Cat. No. PJ25S. SA-APC was provided at a stock concentration of 2.06 mg/mL, where APC concentration was 11.6 μM and the streptavidin concentration was 15.5 μM. SA-APC was used at a final concentration of 12 nM in the assay (based on streptavidin concentration).
This reagent was obtained from Perkin ElmerAD0068. Europium-W1024-PT-66 Anti Phospho Tyrosine Ab is a monoclonal IgG1 that recognizes phospho tyrosine peptide. 100 μg/mL stock was used at a final concentration of 0.1 nM in the assay.
• 1. The compound dilutions were made by TECAN liquid handler as per the scheme in FIG. 1. • 2. 16 μL of diluted compound was added to each well of the assay plate using TECAN liquid handler. • 3. 20 μL of substrate mix (biotinylated gastrin precursor) was added into each well of the assay plate manually. • 4. 10 μL of enzyme mix (FAK1) was added to each well except mins. • 5. The plate was incubated at rt for 45 min with shaking. • 6. The HTRF mix was prepared and 75 μL was added to the HTRF plate. • 7. After the incubation was over, 10 μL of the mixture was transferred to the HTRF assay plate and incubated for 45 min at rt with shaking. • 8. The readings were taken in Pherastar in HTRF mode (ext 337 nm, em 665 & 620 nm) • 9. The results were analyzed using Graphpad Prism® software after calculation the z factor signal window and % inhibition. • 10. The IC50 was calculated.

T1 sequence (Q05397 422-680 limits assumed): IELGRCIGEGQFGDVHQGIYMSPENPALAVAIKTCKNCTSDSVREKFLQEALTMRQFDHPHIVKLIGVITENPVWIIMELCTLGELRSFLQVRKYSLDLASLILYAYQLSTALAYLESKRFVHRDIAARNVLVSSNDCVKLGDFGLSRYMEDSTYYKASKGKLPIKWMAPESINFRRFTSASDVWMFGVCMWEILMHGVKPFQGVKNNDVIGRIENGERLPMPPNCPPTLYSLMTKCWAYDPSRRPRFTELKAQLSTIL

| Compound | IC50 [nM] |
| --- | --- |
| CC(=O)Nc1cccc(Nc2cc3c(cn2)c(C)nn3S(=O)(=O)c2ccccc2OC(F)(F)F)c1 [Example 88] | > 1000 |
| CN(c1ccccc1Cn1ccc2cnc(Nc3ccc(N4CCC(CO)CC4)cc3)nc21)S(C)(=O)=O [Example 566] | < 20 |
| O=S(=O)(c1ccc(Nc2cc3c(ccn3Cc3ccccc3OC(F)F)cn2)cc1)C(F)F [Example 19] | > 1000 |
| CN(c1ccccc1Cn1ccc2cnc(Nc3ccc(N4CCNCC4)cc3)cc21)S(C)(=O)=O [Example 325] | < 20 |
| C[C@H]1CN(c2ccc(Nc3ncc4ccn(Cc5cc(Cl)ccc5N(C)S(C)(=O)=O)c4n3)cc2)CCN1 [Example 899] | < 20 |
| O=C(C1CC1)N1CCN(c2ccc(Nc3cc4c(cn3)cnn4S(=O)(=O)c3cccc4cccnc34)cc2)CC1 [Example 352] | < 20 |
| CN(c1ccc(F)cc1Cn1ccc2cnc(Nc3ccc(N4CCNCC4)c(F)c3)nc21)S(C)(=O)=O [Example 802] | < 20 |
| CN(c1ccccc1Cn1ccc2cnc(Nc3ccc(N4CCNCC4)c(F)c3)nc21)S(C)(=O)=O [Example 438] | < 20 |
| CNc1ccc(Nc2ncc3ccn(Cc4cccnc4N(C)S(C)(=O)=O)c3n2)cc1 [Example 156] | < 20 |
| O=S(=O)(c1ccc(Nc2cc3c(ccn3Cc3cccnc3)cn2)cc1)C(F)F [Example 8] | > 1000 |
| O=C1CCc2cc(Nc3cc4c(ccn4S(=O)(=O)c4ccc(OC(F)(F)F)cc4)cn3)ccc2N1 [Example 48] | > 1000 |
| CN(C)C1CCN(c2ccc(Nc3ncc4ccn(Cc5ccccc5N(C)S(C)(=O)=O)c4n3)cc2F)C1 (centres unmarked) [Example 590] | < 20 |
| CNC1CCN(c2ccc(Nc3ncc4ccn(Cc5cc(OC)ccc5N(C)S(C)(=O)=O)c4n3)cc2)CC1 [Example 709] | < 20 |
| CC1CN(c2ccc(Nc3cc4c(ccn4S(=O)(=O)c4ccccc4C#N)cn3)cc2)CC(C)N1 (centres unmarked) [Example 529] | < 20 |
| COc1ccc(N(C)S(C)(=O)=O)c(Cn2ccc3cnc(Nc4ccc(N5CCNCC5)cc4)nc32)c1 [Example 661] | < 20 |
| COc1ccc(N(C)S(C)(=O)=O)c(Cn2ccc3cnc(Nc4ccc(N5CCC(N(C)C)CC5)c(C)c4)nc32)c1 [Example 705] | < 20 |
| O=S(=O)(c1cccc2cccnc12)n1ncc2cnc(Nc3ccc(N4CCN(CCO)CC4)cc3)cc21 [Example 351] | < 20 |
| CC(=O)Nc1cccc(Nc2cc3c(cn2)c(C)nn3Cc2cccnc2N(C)S(C)(=O)=O)c1 [Example 68] | > 1000 |
| Cc1ccc(N(C)S(C)(=O)=O)c(Cn2ccc3cnc(Nc4ccc(N5CCN[C@@H](C)C5)c(F)c4)nc32)c1 [Example 809] | < 20 |
| CN(c1ccccc1Cn1ccc2cnc(Nc3ccc(N4CCNCC4)c(F)c3)cc21)S(C)(=O)=O [Example 322] | < 20 |
| O=S(=O)(c1ccccc1OC(F)(F)F)n1ncc2cnc(Nc3ccc4ncsc4c3)cc21 [Example 89] | > 1000 |
| CC1CN(c2ccc(Nc3ncc4ccn(Cc5ccccc5N(C)S(C)(=O)=O)c4n3)cc2)CC(C)N1 (centres unmarked) [Example 523] | < 20 |
| O=C1CCc2cc(Nc3ncc4cnn(Cc5cccnc5)c4n3)ccc2N1 [Example 14] | > 1000 |
| CC(C)N1CCN(c2ccc(Nc3ncc4ccn(Cc5ccccc5N(C)S(C)(=O)=O)c4n3)cc2)CC1 [Example 484] | < 20 |
| CN(c1ccccc1Cn1ccc2cnc(Nc3ccc(N4CCN5C(=O)CCC5C4)cc3)nc21)S(C)(=O)=O (centres unmarked) [Example 436] | < 20 |
| C[C@H]1CN(C(=O)c2ccc(Nc3ncc4ccn(Cc5cccnc5N(C)S(C)(=O)=O)c4n3)cc2)CCN1 [Example 682] | > 1000 |
| CN(C)C1CCN(c2ccc(Nc3ncc4ccn(Cc5cc(F)ccc5N(C)S(C)(=O)=O)c4n3)cc2)CC1 [Example 778] | < 20 |

| Compound | IC50 [nM] |
| --- | --- |
| COc1ccc(N(C)S(C)(=O)=O)c(Cn2ccc3cnc(Nc4ccc(N5CCNCC5)c(F)c4)nc32)c1 [Example 700] | < 20 |
| CNC(=O)Cc1ccccc1Cn1ccc2cnc(Nc3ccc(N4CCN(C)CC4)cc3)nc21 [Example 474] | > 1000 |
| Cc1cnc(N(C)S(C)(=O)=O)c(Cn2ccc3cnc(Nc4ccc(N5CCC(N(C)C)CC5)c(C)c4)nc32)c1 [Example 981] | < 20 |
| O=S(=O)(c1ccc(OC(F)(F)F)cc1)n1ccc2cnc(Nc3ccc4ncsc4c3)cc21 [Example 49] | > 1000 |
| CC(=O)Nc1ccccc1Nc1ncc2ccn(Cc3cccnc3N(C)S(C)(=O)=O)c2n1 [Example 71] | > 1000 |
| CC(=O)Nc1cccc(Nc2cc3c(ccn3S(=O)(=O)c3ccc(OC(F)(F)F)cc3)cn2)c1 [Example 46] | > 1000 |
| Cc1cn(S(=O)(=O)c2cccc3cccnc23)c2nc(Nc3ccc(N4CCNCC4)cc3)ncc12 [Example 769] | < 20 |
| Cc1ccc(N(C)S(C)(=O)=O)c(Cn2ccc3cnc(Nc4ccc(N5CCN[C@@H](C)C5)cc4)nc32)c1 [Example 766] | < 20 |
| CN(c1ccc(F)cc1Cn1ccc2cnc(Nc3ccc(N4CCN(CCO)CC4)cc3)nc21)S(C)(=O)=O [Example 920] | < 20 |
| Cc1cc(Nc2ncc3ccn(Cc4cc(F)ccc4N(C)S(C)(=O)=O)c3n2)ccc1N1CCC(N(C)C)CC1 [Example 794] | < 20 |
| CN(c1ncccc1CN1C(=O)C(C)(C)c2cnc(Nc3ccc(N4CCNCC4)cc3)nc21)S(C)(=O)=O [Example 380] | > 1000 |
| C[C@@H]1CN(c2ccc(Nc3ncc4ccn(Cc5ccccc5N(C)S(C)(=O)=O)c4n3)cc2C2CC2)CCN1 [Example 710] | < 20 |
| O=S(=O)(c1cccc2cccnc12)n1ccc2cnc(Nc3ccc(N4CCCC(CO)C4)cc3)nc21 (centres unmarked) [Example 425] | < 20 |
| CC(=O)Nc1ccc(Nc2cc3c(cn2)c(C)nn3Cc2cccnc2N(C)S(C)(=O)=O)nc1 [Example 70] | > 1000 |
| CSc1cccc(Nc2ncc3cnn(Cc4cccnc4)c3n2)c1 [Example 10] | > 1000 |
| Cc1ccc(N(C)S(C)(=O)=O)c(Cn2ccc3cnc(Nc4ccc(N5CCCC(N)C5)cc4)nc32)c1 (centres unmarked) [Example 978] | < 20 |
| CS(=O)(=O)c1ccc(Nc2cc3c(ccn3S(=O)(=O)c3ccccc3OC(F)(F)F)cn2)cc1 [Example 57] | > 1000 |
| CCC1CN(c2ccc(Nc3ncc4ccn(Cc5cc(OC)ccc5N(C)S(C)(=O)=O)c4n3)cc2)CCN1 (centres unmarked) [Example 704] | < 20 |
| O=S(=O)(c1cccc2cccnc12)n1ncc2cnc(Nc3ccc(N4CCOCC4)cc3)nc21 [Example 409] | < 20 |
| FC(F)(F)c1cccc(Nc2cc3c(ccn3Cc3cccnc3)cn2)c1 [Example 16] | > 1000 |
| CN(C)C1CCC(c2ccc(Nc3ncc4ccn(Cc5cc(F)ccc5N(C)S(C)(=O)=O)c4n3)cc2)CC1 (centres unmarked) [Example 806] | < 20 |
| Cc1ccc(N(C)S(C)(=O)=O)c(Cn2ccc3cnc(Nc4ccc(N5CCC(N)CC5)cc4)nc32)c1 [Example 977] | < 20 |
| CN(C)C1CCN(c2ccc(Nc3ncc4ccn(Cc5ccccc5N(C)S(C)(=O)=O)c4n3)cc2)C1 (centres unmarked) [Example 571] | < 20 |
| O=S(=O)(C1CCCC1)n1ccc2cnc(Nc3ccc(N4CCNCC4)cc3)nc21 [Example 238] | > 1000 |
| Cc1ccc(N(C)S(C)(=O)=O)c(Cn2ccc3cnc(Nc4ccc(C5CCC(N(C)C)CC5)cc4)nc32)c1 (centres unmarked) [Example 980] | < 20 |
| CN(c1ccc(OC(F)F)cc1Cn1ccc2cnc(Nc3ccc(N4CCNCC4)cc3)nc21)S(C)(=O)=O [Example 717] | < 20 |
